In ChEMBL document CHEMBL1152067, “Design and syntheses of 4-acylaminopyridine derivatives: Novel high affinity choline uptake enhancers I” (Bioorg Med Chem Lett, 1995):

Experiments:
Conditions in all cases: Hippocampus
[1] = target: High-affinity choline transporter 1 (Rattus norvegicus) (UniProt Q9JMD7); experiment: Effect on uptake amount of [3H]choline in the hippocampal synaptosomes of AF64A-treated rats at a concentration of 10e-5 M.
[2] = target: High-affinity choline transporter 1 (Rattus norvegicus) (UniProt Q9JMD7); experiment: Effect on uptake amount of [3H]choline in the hippocampal synaptosomes of AF64A-treated rats at a concentration of 10e-6 M.
[3] = target: High-affinity choline transporter 1 (Rattus norvegicus) (UniProt Q9JMD7); experiment: Effect on uptake amount of [3H]choline in the hippocampal synaptosomes of AF64A-treated rats at a concentration of 10e-7 M.

Chain of High-affinity choline transporter 1 (Rattus norvegicus) (Q9JMD7 whole entry, looked up): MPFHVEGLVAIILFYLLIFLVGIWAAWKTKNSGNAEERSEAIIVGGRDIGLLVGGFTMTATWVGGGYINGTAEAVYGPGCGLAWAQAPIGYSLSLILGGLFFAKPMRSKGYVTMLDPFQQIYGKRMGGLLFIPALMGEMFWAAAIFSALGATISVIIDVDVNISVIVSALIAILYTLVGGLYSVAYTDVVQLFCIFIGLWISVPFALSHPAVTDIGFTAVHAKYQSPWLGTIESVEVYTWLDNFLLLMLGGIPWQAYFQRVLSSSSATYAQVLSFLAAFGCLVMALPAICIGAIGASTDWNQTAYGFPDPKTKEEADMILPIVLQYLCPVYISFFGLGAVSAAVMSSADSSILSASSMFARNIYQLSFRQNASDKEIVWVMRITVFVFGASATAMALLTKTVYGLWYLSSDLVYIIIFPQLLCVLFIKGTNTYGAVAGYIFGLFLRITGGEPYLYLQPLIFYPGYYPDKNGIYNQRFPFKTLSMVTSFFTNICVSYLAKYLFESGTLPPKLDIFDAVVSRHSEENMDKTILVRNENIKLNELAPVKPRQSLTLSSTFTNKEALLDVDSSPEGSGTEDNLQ

SMILES | HACU improvement [1] | HACU improvement [2] | HACU improvement [3]
O=C(O)CNCC(=O)Nc1c2c(nc3ccccc13)CCCC2 | 27% | -2% | -4%
O=C(CN1CCCCC1=O)Nc1c2c(nc3ccccc13)CCCC2 | 5% | 2% | -3%
O=C(CN1CCCC1)Nc1c2c(nc3ccccc13)CCCC2 | -71% | -20% | 1%
O=C1CN(CC(=O)Nc2c3c(nc4ccccc24)CCCC3)C(=O)N1 | 10% | 11% | 15%
CC1C(=O)NC(=O)N1CC(=O)Nc1c2c(nc3ccccc13)CCCC2 (stereo not given) | 11% | 2% | 4%
O=C(CN1C(=O)CNC1=O)Nc1c2c(nc3ccccc13)CCCC2 | 16% | 0% | -5%
CC(NCC(=O)Nc1c2c(nc3ccccc13)CCCC2)C(=O)O (stereo not given) | 13% | 6% | -7%
O=C(CN1CCCC1=O)Nc1c2c(nc3ccccc13)CCCC2 | 13% | 14% | 17%
O=C(Cn1ccnc1)Nc1c2c(nc3ccccc13)CCCC2 | 48% | 14% | 6%
Nc1c2c(nc3ccccc13)CCCC2 | -13% | 8% | 8%
O=C(CN1CCNC1=O)Nc1c2c(nc3ccccc13)CCCC2 | 25% | 1% | 6%
CCCCCC(=O)Nc1c2c(nc3ccccc13)CCCC2 | 2% | 5% | 11%

Now from value to molecule:

HACU improvement [1] | HACU improvement [2] | HACU improvement [3] | SMILES
28% | 24% | 13% | CCCC(=O)Nc1c2c(nc3ccccc13)CCCC2
0% | -22% | 4% | CC(C)CC(=O)Nc1c2c(nc3ccccc13)CCCC2
3% | 1% | 3% | CCC(=O)Nc1c2c(nc3ccccc13)CCCC2
21% | 18% | 8% | CNCC(=O)Nc1c2c(nc3ccccc13)CCCC2
-7% | -13% | 0% | CN(C)CC(=O)Nc1c2c(nc3ccccc13)CCCC2
-11% | -10% | -12% | CC(=O)Nc1c2c(nc3ccccc13)CCCC2
18% | -1% | -2% | CCCCC(=O)Nc1c2c(nc3ccccc13)CCCC2
15% | 9% | 12% | CC(C)C(=O)Nc1c2c(nc3ccccc13)CCCC2
